Laboratory results taken from PubChem BioAssay AID248 (DTP/NCI, 2004).
Inconclusive results and toxic doses are left out.

Tested on: L1210 leukemia ip in BDF1 mice, survival T/C
Assay: NCI In Vivo Anticancer Drug Screen. Data for tumor model L1210 Leukemia (intraperitoneal) in B6D2F1 (BDF1) mice
Conditions: higher = longer survival
Summary of the method: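 Each compound was tested against a transplantable tumor grown in mice. The endpoint was survival, with treated animals benchmarked against vehicle controls as a simple ratio.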

[1] = endpoint: mean survival time, dose: 100.0 mg/kg/injection, schedule: Q04DX002 (ip), vehicle: Klucel (hydroxypropylcellulose) (HPC)
[2] = endpoint: mean survival time, dose: 200.0 mg/kg/injection, schedule: Q04DX002 (ip), vehicle: Klucel (hydroxypropylcellulose) (HPC)
[3] = endpoint: mean survival time, dose: 15.0 mg/kg/injection, schedule: Q01DX Z (ip), vehicle: carboxymethylcellulose (CMC)
[4] = endpoint: mean survival time, dose: 30.0 mg/kg/injection, schedule: Q01DX Z (ip), vehicle: carboxymethylcellulose (CMC)
[5] = endpoint: mean survival time, dose: 60.0 mg/kg/injection, schedule: Q01DX Z (ip), vehicle: carboxymethylcellulose (CMC)
[6] = endpoint: mean survival time, dose: 100.0 mg/kg/injection, schedule: Q04DX003 (ip), vehicle: saline
[7] = endpoint: mean survival time, dose: 200.0 mg/kg/injection, schedule: Q04DX003 (ip), vehicle: saline
[8] = endpoint: mean survival time, dose: 400.0 mg/kg/injection, schedule: Q04DX003 (ip), vehicle: saline
[9] = endpoint: mean survival time, dose: 100.0 mg/kg/injection, schedule: Q01DX009 (ip), vehicle: Klucel (hydroxypropylcellulose) (HPC)
[10] = endpoint: mean survival time, dose: 100.0 mg/kg/injection, schedule: Q04DX003 (ip), vehicle: Klucel (hydroxypropylcellulose) (HPC)
[11] = endpoint: mean survival time, dose: 200.0 mg/kg/injection, schedule: Q01DX009 (ip), vehicle: Klucel (hydroxypropylcellulose) (HPC)
[12] = endpoint: mean survival time, dose: 200.0 mg/kg/injection, schedule: Q04DX003 (ip), vehicle: Klucel (hydroxypropylcellulose) (HPC)
[13] = endpoint: mean survival time, dose: 400.0 mg/kg/injection, schedule: Q01DX009 (ip), vehicle: Klucel (hydroxypropylcellulose) (HPC)
[14] = endpoint: mean survival time, dose: 400.0 mg/kg/injection, schedule: Q04DX003 (ip), vehicle: Klucel (hydroxypropylcellulose) (HPC)
[15] = endpoint: mean survival time, dose: 100.0 mg/kg/injection, schedule: Q01DX001 (ip), vehicle: saline
[16] = endpoint: mean survival time, dose: 200.0 mg/kg/injection, schedule: Q01DX001 (ip), vehicle: saline
[17] = endpoint: mean survival time, dose: 400.0 mg/kg/injection, schedule: Q01DX001 (ip), vehicle: saline

SMILES: CCC1(CC)c2ccccc2C(CC)(CC)[N+]1(C)C
- T/C (endpoint: mean survival time, dose: 100.0 mg/kg/injection, schedule: Q01DX001 (ip), vehicle: carboxymethylcellulose (CMC)): 102 % of control
- T/C (endpoint: mean survival time, dose: 200.0 mg/kg/injection, schedule: Q01DX001 (ip), vehicle: carboxymethylcellulose (CMC)): 98 % of control

SMILES: O=c1c2ccccc2[nH]c(=S)n1CCc1ccccn1
- T/C [1]: 100 % of control
- T/C [2]: 95 % of control
- T/C (endpoint: mean survival time, dose: 400.0 mg/kg/injection, schedule: Q04DX002 (ip), vehicle: Klucel (hydroxypropylcellulose) (HPC)): 89 % of control

SMILES: O=C1C=C(c2ccccc2)C(Cl)(c2ccccc2)C1 (stereo not drawn)
- T/C (endpoint: mean survival time, dose: 100.0 mg/kg/injection, schedule: Q01DX001 (ip), vehicle: saline with Tween-80): 104 % of control
- T/C (endpoint: mean survival time, dose: 200.0 mg/kg/injection, schedule: Q01DX001 (ip), vehicle: saline with Tween-80): 96 % of control
- T/C (endpoint: mean survival time, dose: 400.0 mg/kg/injection, schedule: Q01DX001 (ip), vehicle: saline with Tween-80): 89 % of control

SMILES: CC(/C=N/N=C(N)N)=N\NC(N)=S
- T/C [3]: 98 % of control
- T/C [4]: 101 % of control
- T/C (endpoint: mean survival time, dose: 30.0 mg/kg/injection, schedule: Q01DX Z (oral), vehicle: carboxymethylcellulose (CMC)): 103 % of control
- T/C [5]: 111 % of control
- T/C (endpoint: mean survival time, dose: 60.0 mg/kg/injection, schedule: Q01DX Z (oral), vehicle: carboxymethylcellulose (CMC)): 103 % of control
- T/C (endpoint: mean survival time, dose: 120.0 mg/kg/injection, schedule: Q01DX Z (ip), vehicle: carboxymethylcellulose (CMC)): 114 % of control
- T/C (endpoint: mean survival time, dose: 120.0 mg/kg/injection, schedule: Q01DX Z (oral), vehicle: carboxymethylcellulose (CMC)): 106 % of control
- T/C (endpoint: mean survival time, dose: 240.0 mg/kg/injection, schedule: Q01DX Z (oral), vehicle: carboxymethylcellulose (CMC)): 105 % of control

SMILES: O=C(Nc1ccc(C2=NCCN2)cc1)c1cncc(C(=O)Nc2ccc(C3=NCCN3)cc2)c1
- T/C (endpoint: mean survival time, dose: 1.0 mg/kg/injection, schedule: Q01DX Z (ip), vehicle: saline): 97 % of control
- T/C (endpoint: mean survival time, dose: 2.0 mg/kg/injection, schedule: Q01DX Z (ip), vehicle: saline): 111 % of control
- T/C [3]: 223 % of control
- T/C (endpoint: mean survival time, dose: 16.0 mg/kg/injection, schedule: Q01DX Z (ip), vehicle: saline): 214 % of control
- T/C [4]: 158 % of control
- T/C (endpoint: mean survival time, dose: 30.0 mg/kg/injection, schedule: Q01DX Z (oral), vehicle: saline): 101 % of control
- T/C [5]: 120 % of control
- T/C (endpoint: mean survival time, dose: 60.0 mg/kg/injection, schedule: Q01DX Z (oral), vehicle: saline): 104 % of control
- T/C (endpoint: mean survival time, dose: 120.0 mg/kg/injection, schedule: Q01DX Z (oral), vehicle: saline): 98 % of control
- T/C (endpoint: mean survival time, dose: 240.0 mg/kg/injection, schedule: Q01DX Z (oral), vehicle: saline): 106 % of control
- T/C (endpoint: mean survival time, dose: 480.0 mg/kg/injection, schedule: Q01DX Z (oral), vehicle: saline): 101 % of control
- T/C (endpoint: mean survival time, dose: 960.0 mg/kg/injection, schedule: Q01DX Z (oral), vehicle: saline): 101 % of control

SMILES: CN(C)C(=S)SCCC(=O)O
- T/C [1]: 94 % of control
- T/C (endpoint: mean survival time, dose: 100.0 mg/kg/injection, schedule: Q04DX002 (ip), vehicle: saline): 103 % of control
- T/C [2]: 88 % of control
- T/C (endpoint: mean survival time, dose: 200.0 mg/kg/injection, schedule: Q04DX002 (ip), vehicle: saline): 100 % of control
- T/C (endpoint: mean survival time, dose: 400.0 mg/kg/injection, schedule: Q04DX002 (ip), vehicle: saline): 100 % of control

SMILES: COc1cccc(C=Nc2ccc(Br)cc2)c1O.COc1cccc(C=Nc2ccc(Br)cc2)c1O.[Co]
- T/C [6]: 98 % of control
- T/C [7]: 98 % of control
- T/C [8]: 98 % of control

SMILES: COc1ccc(Br)cc1/C=N\NS(=O)(=O)c1ccc(C)cc1
- T/C (endpoint: mean survival time, dose: 100.0 mg/kg/injection, schedule: Q01DX009 (ip), vehicle: other): 100 % of control
- T/C [6]: 96 % of control
- T/C (endpoint: mean survival time, dose: 200.0 mg/kg/injection, schedule: Q01DX009 (ip), vehicle: other): 105 % of control
- T/C [7]: 96 % of control
- T/C (endpoint: mean survival time, dose: 400.0 mg/kg/injection, schedule: Q01DX009 (ip), vehicle: other): 114 % of control
- T/C [8]: 93 % of control

SMILES: c1ccc(N2CN(c3ccccc3)N(c3ccccc3)CN2c2ccccc2)cc1
- T/C (endpoint: mean survival time, dose: 100.0 mg/kg/injection, schedule: Q01DX001 (ip), vehicle: other): 92 % of control
- T/C (endpoint: mean survival time, dose: 200.0 mg/kg/injection, schedule: Q01DX001 (ip), vehicle: other): 89 % of control

SMILES: ClC(Cl)(Cl)C1NCCO1 (stereo not drawn)
- T/C [9]: 96 % of control
- T/C [10]: 102 % of control
- T/C [11]: 97 % of control
- T/C [12]: 94 % of control
- T/C [13]: 89 % of control
- T/C [14]: 94 % of control

SMILES: COC(C)C(O)(C(N)=O)C(C)C (stereo not drawn)
- T/C [9]: 98 % of control
- T/C [10]: 101 % of control
- T/C [11]: 98 % of control
- T/C [12]: 101 % of control
- T/C [13]: 102 % of control
- T/C [14]: 97 % of control

SMILES: CCCC(=O)CCCCNC(=O)c1ccccc1
- T/C (endpoint: mean survival time, dose: 100.0 mg/kg/injection, schedule: Q04DX002 (ip), vehicle: saline with Tween-80): 99 % of control
- T/C (endpoint: mean survival time, dose: 200.0 mg/kg/injection, schedule: Q04DX002 (ip), vehicle: saline with Tween-80): 89 % of control

SMILES: COC1CC(O)C(O)C(C)O1 (stereo not drawn)
- T/C [15]: 93 % of control
- T/C (endpoint: mean survival time, dose: 100.0 mg/kg/injection, schedule: Q01DX009 (ip), vehicle: saline with Tween-80): 100 % of control
- T/C (endpoint: mean survival time, dose: 100.0 mg/kg/injection, schedule: Q04DX003 (ip), vehicle: saline with Tween-80): 91 % of control
- T/C [16]: 96 % of control
- T/C (endpoint: mean survival time, dose: 200.0 mg/kg/injection, schedule: Q01DX009 (ip), vehicle: saline with Tween-80): 91 % of control
- T/C (endpoint: mean survival time, dose: 200.0 mg/kg/injection, schedule: Q04DX003 (ip), vehicle: saline with Tween-80): 108 % of control
- T/C [17]: 98 % of control
- T/C (endpoint: mean survival time, dose: 400.0 mg/kg/injection, schedule: Q01DX009 (ip), vehicle: saline with Tween-80): 89 % of control
- T/C (endpoint: mean survival time, dose: 400.0 mg/kg/injection, schedule: Q04DX003 (ip), vehicle: saline with Tween-80): 100 % of control

SMILES: Cc1cccc(C(=O)OCc2ccccc2CN(C)C)c1
- T/C (endpoint: mean survival time, dose: 75.0 mg/kg/injection, schedule: Q04DX002 (ip), vehicle: Klucel (hydroxypropylcellulose) (HPC)): 91 % of control
- T/C (endpoint: mean survival time, dose: 150.0 mg/kg/injection, schedule: Q04DX002 (ip), vehicle: Klucel (hydroxypropylcellulose) (HPC)): 94 % of control
- T/C (endpoint: mean survival time, dose: 300.0 mg/kg/injection, schedule: Q04DX002 (ip), vehicle: Klucel (hydroxypropylcellulose) (HPC)): 94 % of control

SMILES: CSCS(=O)C[C@H](CO)NC(=O)/C=C/c1c(C)[nH]c(=O)[nH]c1=O (stereo partly drawn)
- T/C (endpoint: mean survival time, dose: 0.38 mg/kg/injection, schedule: Q01DX001 (ip), vehicle: saline): 105 % of control
- T/C (endpoint: mean survival time, dose: 0.39 mg/kg/injection, schedule: Q04DX002 (ip), vehicle: Klucel (hydroxypropylcellulose) (HPC)): 96 % of control
- T/C (endpoint: mean survival time, dose: 0.75 mg/kg/injection, schedule: Q01DX001 (ip), vehicle: saline): 103 % of control
- T/C (endpoint: mean survival time, dose: 0.75 mg/kg/injection, schedule: Q01DX Z (ip), vehicle: carboxymethylcellulose (CMC)): 86 % of control
- T/C (endpoint: mean survival time, dose: 0.78 mg/kg/injection, schedule: Q04DX002 (ip), vehicle: Klucel (hydroxypropylcellulose) (HPC)): 96 % of control
- T/C (endpoint: mean survival time, dose: 1.1 mg/kg/injection, schedule: Q01DX001 (ip), vehicle: carboxymethylcellulose (CMC)): 106 % of control
- T/C (endpoint: mean survival time, dose: 1.5 mg/kg/injection, schedule: Q01DX001 (ip), vehicle: saline): 116 % of control
- T/C (endpoint: mean survival time, dose: 1.56 mg/kg/injection, schedule: Q04DX002 (ip), vehicle: Klucel (hydroxypropylcellulose) (HPC)): 110 % of control
- T/C (endpoint: mean survival time, dose: 1.7 mg/kg/injection, schedule: Q01DX001 (ip), vehicle: carboxymethylcellulose (CMC)): 112 % of control
- T/C (endpoint: mean survival time, dose: 2.6 mg/kg/injection, schedule: Q01DX001 (ip), vehicle: carboxymethylcellulose (CMC)): 112 % of control
- T/C (endpoint: mean survival time, dose: 3.0 mg/kg/injection, schedule: Q01DX001 (ip), vehicle: saline): 111 % of control
- T/C (endpoint: mean survival time, dose: 3.13 mg/kg/injection, schedule: Q04DX002 (ip), vehicle: Klucel (hydroxypropylcellulose) (HPC)): 104 % of control
- T/C (endpoint: median survival time, dose: 4.0 mg/kg/injection, schedule: Q04DX003 (ip), vehicle: saline): 121 % of control

SMILES: COC1C(C(=O)O)=CC=CC1OC(C)=O (stereo not drawn)
- T/C [15]: 90 % of control
- T/C [16]: 102 % of control
- T/C [17]: 104 % of control

SMILES: CCCCCCC(C)NCC(O)COc1cccc(C)c1 (stereo not drawn)
- T/C (endpoint: mean survival time, dose: 12.5 mg/kg/injection, schedule: Q01DX009 (ip), vehicle: saline with Tween-80): 94 % of control
- T/C (endpoint: mean survival time, dose: 25.0 mg/kg/injection, schedule: Q01DX009 (ip), vehicle: saline with Tween-80): 97 % of control
